Laboratory results taken from patent US8063225B2, “Tricyclic compound derivatives useful in the treatment of neoplastic diseases, inflammatory disorders and immunomodulatory disorders” (Chembridge Corporation, priority 2006, dated 2011).

Experiments:
IGF1R tyrosine kinase = molecular target: T1, IGF1R tyrosine kinase (Homo sapiens, UniProt P08069); assay: IGF1R tyrosine kinase assay (Kinase-Glo ATP depletion or PT66/PT100 AlphaScreen); settings: biochemical tyrosine kinase assay
T1 construct: 6×His- or GST-tagged kinase domain fragments of the corresponding RTKs expressed in baculovirus system; host or cells: baculovirus system
How it was run: (§1)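 In the AlphaScreen version, kinase domain, biotinylated poly(Glu-Tyr) and 10 μM ATP react 30 minutes at room temperature, then PT66 or PT100 beads are added for a further 60 minutes. Buffer is Tris-HCl pH 7.5 with MgCl2, MnCl2, DTT and Tween 20.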

InsR = molecular target: T2, InsR (Homo sapiens, UniProt P06213); assay: Tyrosine kinase assay (Kinase-Glo or AlphaScreen), InsR; settings: biochemical tyrosine kinase assay
T2 construct: 6×His- or GST-tagged kinase domain fragments of the corresponding RTKs expressed in baculovirus system; host or cells: baculovirus system
How it was run: as §1

Alk = molecular target: T3, Alk (Homo sapiens, UniProt Q9UM73); assay: Tyrosine kinase assay (Kinase-Glo or AlphaScreen), Alk; settings: biochemical tyrosine kinase assay
T3 construct: 6×His- or GST-tagged kinase domain fragments of the corresponding RTKs expressed in baculovirus system; host or cells: baculovirus system
How it was run: as §1

TrkA = molecular target: T4, TrkA (Homo sapiens, UniProt P04629); assay: Tyrosine kinase assay (Kinase-Glo or AlphaScreen), TrkA; settings: biochemical tyrosine kinase assay
T4 construct: 6×His- or GST-tagged kinase domain fragments of the corresponding RTKs expressed in baculovirus system; host or cells: baculovirus system
Description: To determine inhibition of several tyrosine kinases, such as IGF1R, InsR, Alk, TrkA and Jak2, kinase assays are conducted using either Kinase-Glo (Promega) or AlphaScreen (PerkinElmer) kinase assay platforms. The Kinase-Glo Luminescent Kinase Assay is a homogeneous method for measuring kinase activity by determining the amount of ATP remaining after a kinase reaction. The luminescent signal is proportional to the amount of ATP and inversely proportional to the amount of kinase activity. Tyrosine kinase PT66 AlphaScreen Assay is a high-sensitivity homogeneous, anti-phosphotyrosine antibody-mediated luminescent proximity method measuring, incorporation of phosphate in synthetic poly(Glu-Tyr) substrate. The kinase preparations used consist of purified recombinant, 6×His- or GST-tagged kinase domain fragments of the corresponding RTKs expressed in baculovirus system.
The IGF1R tyrosine kinase is assayed in Kinase-Glo ATP depletion assay using the synthetic polymer poly(Glu-Tyr, 4:1) (Sigma Chemicals) as a phosphoacceptor substrate. Each reaction mixture consists of a total volume of 10 μl and contains 40 ng of the enzyme, 5 μg of poly(Glu-Tyr), 10 μM of ATP and variable concentrations of test compounds. The mixtures also contain 50 mM Tris-HCl, pH 7.5; 5 mM MgCl2; 5 mM MnCl2; 2 mM DTT and 0.01% Tween 20. The reaction mixtures are incubated at 37° C. for 60 minutes and residual concentration of ATP in the mixture is determined by adding luciferase-containing Kinase-Glo (Promega) development reagent and counting luminescence levels using Fusion Universal Microplate Analyzer (PerkinElmer). Tested compounds are dissolved in dimethyl sulfoxide to a stock concentration of 10 mM and are typically evaluated in the assay at eight concentrations in 1 nM to 20 μM range, each in quadruplicate. […] IC50 values are derived by non-linear regression analysis using Prism 3.0 software (Graphpad Software). Other tyrosine kinases are assayed according to the same protocol after titrating amount of the enzyme to provide optimal signal-to-noise ratio and no more than 30% of total ATP consumption in the reaction conditions used.
The IGF1R tyrosine kinase is assayed in Phosphotyrosine (PT66 or PT 100) AlphaScreen chemiluminescent assay (PerkinElmer) according to the manufacturerer's recommendations. Each kinase reaction mixture consists of a total volume of 15 μl and contains 0.1-1 ng of the enzyme, 7 ng of biotinylated poly(Glu-Tyr) (Cis-Bio), 10 μM of ATP and variable concentrations of test compounds. The mixtures also contain 50 mM Tris-HCl, pH 7.5; 5 mM MgCl2; 5 mM MnCl2; 2 mM DTT and 0.01% Tween 20. The reaction mixtures are incubated at room temperature for 30 minutes. Ten (10) μl of the mixture of […] and donor beads (as supplied by the manufacturer) is then added to the reaction and the incubation is continued for an additional 60 minutes.

Jak2 = molecular target: T5, Jak2 (Homo sapiens, UniProt O60674); assay: Tyrosine kinase assay (Kinase-Glo or AlphaScreen), Jak2; settings: biochemical tyrosine kinase assay
T5 construct: 6×His- or GST-tagged kinase domain fragments of the corresponding RTKs expressed in baculovirus system; host or cells: baculovirus system
How it was run: as §1

H929 (multiple myeloma) = assay: Cell proliferation inhibition, Cell Titer-Glo, H929; format: cell-based; settings: Homo sapiens, NCI-H929; cell proliferation assay, H929 cells
How it was run: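 Cells seeded at 2500-5000 per well with serially diluted compound for typically 3 days. Viable cells measured by ATP luminescence (Cell Titer-Glo); IC50 from proliferation-inhibition curves.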

Ba/F3 = assay: Cell proliferation inhibition, Cell Titer-Glo, Ba/F3; format: cell-based; settings: Mus musculus, BaF3; cell proliferation assay, Ba/F3 cells
How it was run: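 This standard 3-day proliferation assay used Ba/F3 cells plated in 384-well white plates with clear bottoms at 2500-5000 cells per well and treated with compound dilutions. Viable cell number was determined by mixing in Cell Titer-Glo developing reagent according to the manufacturer's protocol and counting luminescence. Percent viability relative to day 0 and untreated wells produced IC50 curves.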

Karpas-299 = assay: Cell proliferation inhibition, Cell Titer-Glo, Karpas-299; format: cell-based; settings: Homo sapiens; cell proliferation assay, Karpas-299 cells
How it was run: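 In this standard 3-day proliferation assay, Karpas 299 cells plated at 2500-5000 cells per well in 384-well white, clear-bottomed plates were treated with compound dilutions. Cell Titer-Glo developing reagent was added following the manufacturer's protocol, luminescence reflecting ATP content was read on a multiwell plate reader, and IC50 curves were generated.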

K562 = assay: Cell proliferation inhibition, Cell Titer-Glo, K562; format: cell-based; settings: Homo sapiens; cell proliferation assay, K562 cells
How it was run: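 Proliferation inhibition in human K562 cells was assessed in a standard 3-day assay. Cells (2500-5000 per well) in 384-well white, clear-bottomed plates received serial compound dilutions, then Cell Titer-Glo reagent was added per the manufacturer's protocol. Luminescence reflecting ATP content of metabolically active cells was counted in a multiwell reader, and IC50 curves were generated.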

[1] = test system: HEK293 (human normal embryonic kidney); assay: Cell proliferation inhibition, Cell Titer-Glo, HEK293; format: cell-based; settings: cell proliferation assay, HEK293 cells, read-out: HEK 293 IC50
Description: (§2) IGF1R and other tyrosine kinase inhibitors can inhibit the proliferation of certain cancer cell lines indicating their possible therapeutic utility for treating the corresponding cancer types. Cancer cell lines of interest and control normal lines, including CHO, HEK293, BA/F3, MM1, H929, COLO205, PC3, DU145, MCF7, Panc1, ACHN, Hep G2, H460, K562, TT, U87-G, CAOV-3, SK-MEL5, Karpas 299, are plated in white, clear-bottomed 384-well cell culture plates at 2500-5000 cells per well and supplied with dilutions of tested compounds After a desired period of time (typically 3 days), the number of viable cells is quantitated by using Cell Titer-Glo Luminescent Cell Viability Assay (Promega), a cell proliferation assay system based on detection of total amount of ATP present as a measure of cell metabolic activity. The plated cells are mixed with the Cell Titer-Glo developing reagent and counted in a luminescence multiwell plate reader according to the standard manufacturer's protocol to generate IC50 curves for cell proliferation inhibition.
(§3) IGF1R and other tyrosine kinase inhibitors can inhibit the proliferation of certain cancer cell lines indicating their possible therapeutic utility for treating the corresponding cancer types. Cancer cell lines of interest and control normal lines, including CHO, HEK293, BA/F3, COLO205, PC3, DU145, MCF7, Panc1, ACHN, Hep G2, H460, K562, TT, U87-MG, CAOV-3, SK-MEL5, Karpas 299 and human multiple myeloma cell lines H929, MM1s, MM1r, UTMC2, CPM2, KMS11, My5, KMS12PE, My7, JJN3, KMS18, U266, SKMM2, RPMI-8226 are plated in white, clear-bottomed 384-well cell culture plates at 2500-5000 cells per well and supplied with dilutions of tested compounds After a desired period of time (typically 3 days), the number of viable cells is quantitated by using Cell Titer-Glo Luminescent Cell Viability Assay (Promega), a cell proliferation assay system based on detection of total amount of ATP present as a measure of cell metabolic activity. The plated cells are mixed with the Cell Titer-Glo developing reagent and counted in a luminescence multiwell plate reader according to the standard manufacturer's protocol to generate IC50 curves for cell proliferation inhibition. Results are typically reported as percent of growth (% viability =(OD72h(compound)−ODday0))/(OD72h(no compound)−ODday0). Alternatively, viable cells are quantitated by using the conventional colorimetric MTT assay. The MTT assay is based on the cleavage of the yellow tetrazolium salt MTT to purple formazan crystal by metabolic active cells. The formazan is then solubilized, and the concentration determined by optical density at 570 nm. The cells plated and incubated with a compound as described above are supplemented with the solution of MTT and incubated for 2-3 hours. The growth medium is removed and dimethyl sulfoxide is added into each well to dissolve the formazan. The absorbance is measured on an ELISA plate reader with a test wavelength of 570 nm and a background subtraction wavelength of 630 nm to obtain sample signal (OD570-OD630). […] The results are reported in terms of IC50 value for a particular compound and a cell line in the standard 3-day proliferation assay using Cell Titer-Glo. […] The results are reported in terms of IC50 value for a particular compound and a cell line in the standard 3-day proliferation assay using MTT assay.

[2] = test system: CHO (chinese hamster ovary); assay: Cell proliferation inhibition, Cell Titer-Glo, CHO; format: cell-based; settings: Cricetulus griseus; cell proliferation assay, CHO cells
Description: as §2, §3

T4 sequence (P04629 510-781 limits assumed, species assumed): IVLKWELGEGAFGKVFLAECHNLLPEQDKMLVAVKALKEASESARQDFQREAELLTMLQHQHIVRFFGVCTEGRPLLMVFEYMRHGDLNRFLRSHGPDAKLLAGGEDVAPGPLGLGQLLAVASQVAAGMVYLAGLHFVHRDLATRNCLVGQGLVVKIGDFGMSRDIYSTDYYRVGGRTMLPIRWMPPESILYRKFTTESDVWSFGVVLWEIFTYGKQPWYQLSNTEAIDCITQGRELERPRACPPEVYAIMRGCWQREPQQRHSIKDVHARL
T2 sequence (P06213 1023-1298 limits assumed, species assumed): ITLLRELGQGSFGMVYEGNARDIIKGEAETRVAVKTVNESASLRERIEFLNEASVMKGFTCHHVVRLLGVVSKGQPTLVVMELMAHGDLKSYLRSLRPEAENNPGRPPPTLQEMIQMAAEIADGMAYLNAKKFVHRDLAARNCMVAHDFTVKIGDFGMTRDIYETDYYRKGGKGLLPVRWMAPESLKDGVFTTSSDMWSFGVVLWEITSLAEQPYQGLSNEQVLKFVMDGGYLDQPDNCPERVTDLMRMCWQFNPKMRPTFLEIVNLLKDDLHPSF
T5 sequence (O60674 849-1124 limits assumed, species assumed): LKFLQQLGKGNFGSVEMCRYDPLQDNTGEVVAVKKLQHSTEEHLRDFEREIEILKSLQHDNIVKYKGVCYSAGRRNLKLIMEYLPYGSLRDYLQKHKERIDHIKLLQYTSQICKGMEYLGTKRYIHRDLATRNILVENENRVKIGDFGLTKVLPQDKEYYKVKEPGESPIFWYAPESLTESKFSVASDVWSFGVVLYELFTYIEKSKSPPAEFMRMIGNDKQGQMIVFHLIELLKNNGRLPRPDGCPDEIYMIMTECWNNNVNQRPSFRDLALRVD
T3 sequence (Q9UM73 1116-1392 limits assumed, species assumed): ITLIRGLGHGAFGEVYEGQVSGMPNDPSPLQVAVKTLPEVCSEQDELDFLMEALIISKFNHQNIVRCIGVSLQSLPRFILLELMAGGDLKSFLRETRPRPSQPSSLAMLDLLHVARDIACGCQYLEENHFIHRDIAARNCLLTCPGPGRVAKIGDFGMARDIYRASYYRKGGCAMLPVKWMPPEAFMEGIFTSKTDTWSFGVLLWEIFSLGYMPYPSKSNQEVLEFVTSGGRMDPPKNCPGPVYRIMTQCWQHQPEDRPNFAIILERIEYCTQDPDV
T1 sequence (P08069 999-1274 limits assumed): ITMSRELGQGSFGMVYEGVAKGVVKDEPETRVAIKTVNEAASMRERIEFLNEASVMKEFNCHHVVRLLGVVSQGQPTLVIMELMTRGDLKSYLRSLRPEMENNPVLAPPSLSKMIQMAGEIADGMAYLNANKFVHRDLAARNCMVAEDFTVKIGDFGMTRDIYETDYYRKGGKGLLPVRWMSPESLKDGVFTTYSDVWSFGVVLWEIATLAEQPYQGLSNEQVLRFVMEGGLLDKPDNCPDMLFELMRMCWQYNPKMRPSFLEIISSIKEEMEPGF

Row | SMILES | IC50 (IGF1R tyrosine kinase) | IC50 (InsR) | IC50 (Alk) | IC50 (TrkA) | IC50 (Jak2) | IC50 (H929 (multiple myeloma)) | IC50 (Ba/F3) | IC50 (Karpas-299) | IC50 (K562) | IC50 [1] | IC50 [2]
1 | Cc1c(Cl)cccc1OC[C@H](O)CNc1cc[nH]c(=O)c1-c1nc2cc3c(cc2[nH]1)C(=O)N(C1CCN(C)CC1)C3 [compound 133] | < 0.5 µM | < 0.5 µM | 0.5 to 5 µM | < 0.5 µM | < 0.5 µM |  |  |  |  |  | 
2 | Cc1c(Cl)cccc1OC[C@H](O)CNc1cc[nH]c(=O)c1-c1nc2cc3c(cc2[nH]1)C(=O)N(C1CCN(CCCO)CC1)C3=O [compound 135] | < 0.5 µM | 0.5 to 5 µM | 0.5 to 5 µM | < 0.5 µM | 0.5 to 5 µM | > 15 µM | > 15 µM | > 15 µM | > 15 µM |  | 
3 | CN1CCC(N2Cc3cc4[nH]c(-c5c(NC[C@@H](O)COc6ccc7c(c6Cl)OCO7)cc[nH]c5=O)nc4cc3C2=O)CC1 [compound 163] | < 0.5 µM | < 0.5 µM | 0.5 to 5 µM |  | < 0.5 µM | 5 to 15 µM |  |  |  | 5 to 15 µM | > 15 µM
4 | Cc1c(OC[C@H](O)CNc2cc[nH]c(=O)c2-c2nc3cc4c(cc3[nH]2)CN(C2CCN(C)CC2)C4=O)ccc2c1OCO2 [compound 169] | < 0.5 µM | < 0.5 µM | 0.5 to 5 µM |  | < 0.5 µM | > 15 µM |  |  |  | > 15 µM | > 15 µM
5 | CC(=N)N1CCC(N2C(=O)c3cc4nc(-c5c(NC[C@@H](O)COc6ccc(C)cc6C)cc[nH]c5=O)[nH]c4cc3C2=O)CC1 [compound 161] | < 0.5 µM | < 0.5 µM | 0.5 to 5 µM |  | 0.5 to 5 µM | 5 to 15 µM | > 15 µM | 5 to 15 µM | > 15 µM | > 15 µM | > 15 µM
6 | CCc1c(OC[C@H](O)CNc2cc[nH]c(=O)c2-c2nc3cc4c(cc3[nH]2)CN(C2CCN(C)CC2)C4=O)ccc2c1OCO2 [compound 162] | < 0.5 µM | < 0.5 µM | 0.5 to 5 µM |  | < 0.5 µM | 5 to 15 µM |  |  |  | 5 to 15 µM | 5 to 15 µM
7 | CN1CCC(N2Cc3cc4[nH]c(-c5c(NC[C@@H](O)COc6ccccc6Br)cc[nH]c5=O)nc4cc3C2=O)CC1 [compound 167] | < 0.5 µM | < 0.5 µM | 0.5 to 5 µM |  | < 0.5 µM | 0.5 to 5 µM |  |  |  | > 15 µM | > 15 µM
8 | CN1CCC(N2Cc3cc4nc(-c5c(NC[C@@H](O)COc6c(F)ccc(Cl)c6F)cc[nH]c5=O)[nH]c4cc3C2=O)CC1 [compound 134] | < 0.5 µM | < 0.5 µM | 5 to 15 µM | < 0.5 µM | < 0.5 µM |  |  |  |  |  | 
9 | CN1CCC(N2Cc3cc4[nH]c(-c5c(NC[C@@H](O)COc6c(F)cc(F)cc6Br)cc[nH]c5=O)nc4cc3C2=O)CC1 [compound 164] | < 0.5 µM | < 0.5 µM | 0.5 to 5 µM |  | < 0.5 µM | 5 to 15 µM |  |  |  | 5 to 15 µM | 5 to 15 µM
